Calls of active or inactive are those of the source.
Legend:
[1] = biological target: T1, Heat shock factor protein 1 (Mus musculus, UniProt P38532); test: enhancement of HSF1-driven luciferase signal – cell-based, NIH3T3, luminescence, dose retest, confirmation (AID 435004); assay type: functional;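 further: stress induced by proteasome inhibitor MG132 added 30 min after compound; luciferase reporter driven by HSF1 response element in NIH3T3 cells; actives raise luminescence as potentiators of the MG132 stress response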
T1 sequence (P38532 whole entry): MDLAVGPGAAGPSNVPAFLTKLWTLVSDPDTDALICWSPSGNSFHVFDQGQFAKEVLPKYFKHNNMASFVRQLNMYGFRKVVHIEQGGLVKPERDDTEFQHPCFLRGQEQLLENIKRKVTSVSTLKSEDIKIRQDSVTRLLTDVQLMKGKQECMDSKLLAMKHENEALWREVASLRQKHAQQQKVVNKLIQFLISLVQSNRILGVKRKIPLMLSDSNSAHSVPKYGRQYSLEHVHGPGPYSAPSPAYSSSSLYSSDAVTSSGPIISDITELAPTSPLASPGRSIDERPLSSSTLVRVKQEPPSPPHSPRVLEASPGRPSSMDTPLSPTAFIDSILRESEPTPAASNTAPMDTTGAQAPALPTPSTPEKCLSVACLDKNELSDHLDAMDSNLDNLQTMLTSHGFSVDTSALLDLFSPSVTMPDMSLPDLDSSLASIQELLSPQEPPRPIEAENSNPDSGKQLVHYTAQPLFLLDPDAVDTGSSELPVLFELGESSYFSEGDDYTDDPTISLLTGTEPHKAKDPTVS

[2] = biological target: T2, Calpain-2 catalytic subunit (Sus scrofa, UniProt P43367); test: m-calpain protease blockers, concentration series – biochemical, fluorogenic peptide substrate, dose response (AID 1420); assay type: functional
T2 sequence (P43367 whole entry): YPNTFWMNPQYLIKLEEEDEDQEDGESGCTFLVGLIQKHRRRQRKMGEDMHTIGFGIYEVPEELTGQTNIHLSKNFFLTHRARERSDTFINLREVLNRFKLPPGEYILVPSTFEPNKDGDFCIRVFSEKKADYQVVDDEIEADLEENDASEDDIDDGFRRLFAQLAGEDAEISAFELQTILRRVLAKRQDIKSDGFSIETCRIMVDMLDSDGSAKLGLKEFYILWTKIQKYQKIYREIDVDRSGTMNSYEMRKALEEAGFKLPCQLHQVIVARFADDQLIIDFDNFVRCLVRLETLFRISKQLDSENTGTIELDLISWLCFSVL

[3] = biological target: T3, Carboxy-terminal domain RNA polymerase II polypeptide A small phosphatase 1 (Homo sapiens, UniProt Q9GZU7); test: CTDSP1 inhibitors, concentration-response, biochemical, absorbance readout, ultra-high-throughput screen actives (AID 540297); assay type: functional
T3 sequence (Q9GZU7 whole entry): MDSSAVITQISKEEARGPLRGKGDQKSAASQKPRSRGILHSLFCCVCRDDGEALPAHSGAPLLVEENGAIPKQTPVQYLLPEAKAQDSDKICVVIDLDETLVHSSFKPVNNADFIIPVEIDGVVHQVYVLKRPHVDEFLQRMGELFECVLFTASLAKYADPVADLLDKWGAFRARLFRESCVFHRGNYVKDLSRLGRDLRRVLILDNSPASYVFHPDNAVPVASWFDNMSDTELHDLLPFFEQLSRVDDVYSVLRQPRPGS

[4] = biological target: FAD-linked sulfhydryl oxidase ALR (Homo sapiens, UniProt P55789); test: ALR-catalysed DTT oxidation blockers – biochemical, H2O2 detection, luminescence, cherry-pick, dose response (AID 493248)
Sequence of FAD-linked sulfhydryl oxidase ALR (P55789 whole entry, the tested form may be a part): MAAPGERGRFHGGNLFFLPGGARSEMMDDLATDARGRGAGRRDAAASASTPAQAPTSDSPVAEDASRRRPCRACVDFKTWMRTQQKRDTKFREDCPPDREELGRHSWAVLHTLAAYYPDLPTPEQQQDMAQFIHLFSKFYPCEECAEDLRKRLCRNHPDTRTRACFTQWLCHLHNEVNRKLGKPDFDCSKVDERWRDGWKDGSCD

[5] = biological target: T4, RNA-binding protein pos-1 (Caenorhabditis elegans, UniProt G5EF15); test: disruptors of C. elegans POS-1 RNA interaction – biochemical, fluorescence polarization, dose response (AID 1964);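 further: purified POS-1 fused to maltose binding protein made in E. coli; potency of compounds blocking POS-1 binding to fluorescent RNA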
T4 sequence (G5EF15 whole entry): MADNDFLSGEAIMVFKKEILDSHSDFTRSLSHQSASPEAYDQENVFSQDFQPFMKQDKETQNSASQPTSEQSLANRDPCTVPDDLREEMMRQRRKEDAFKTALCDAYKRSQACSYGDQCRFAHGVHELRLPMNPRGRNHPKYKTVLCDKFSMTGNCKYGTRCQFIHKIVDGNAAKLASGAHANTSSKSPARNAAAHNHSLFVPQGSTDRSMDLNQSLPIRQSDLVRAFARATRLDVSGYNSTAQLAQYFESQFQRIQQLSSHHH

[6] = biological target: T5, Zinc finger protein mex-5 (Caenorhabditis elegans, UniProt Q9XUB2); test: potency of MEX-5 RNA-binding blockers – biochemical, C. elegans, fluorescence polarization, dose response (AID 1960)
T5 sequence (Q9XUB2 whole entry): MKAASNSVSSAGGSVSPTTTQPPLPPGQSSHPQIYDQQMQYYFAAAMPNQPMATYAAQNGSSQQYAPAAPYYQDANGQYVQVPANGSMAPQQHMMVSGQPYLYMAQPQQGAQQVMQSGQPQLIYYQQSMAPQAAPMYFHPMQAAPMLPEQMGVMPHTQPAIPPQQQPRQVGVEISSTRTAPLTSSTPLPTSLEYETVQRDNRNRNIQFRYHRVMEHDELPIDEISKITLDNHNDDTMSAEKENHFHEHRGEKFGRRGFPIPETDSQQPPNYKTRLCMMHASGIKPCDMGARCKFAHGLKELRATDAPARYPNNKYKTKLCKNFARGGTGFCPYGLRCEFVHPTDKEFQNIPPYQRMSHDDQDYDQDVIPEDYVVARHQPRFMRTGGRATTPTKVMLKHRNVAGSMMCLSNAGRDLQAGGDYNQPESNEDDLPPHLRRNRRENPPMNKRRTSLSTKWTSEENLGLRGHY

[7] = fluconazole-exposed Candida albicans growth modulators – fluorescence, retest, confirmation (AID 2467); assay type: functional, cell-based
Cytochrome P450 3A4 = Cytochrome P450 3A4 (Homo sapiens, UniProt P08684);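 further: CYP3A4 tested as one member of a cytochrome P450 panel screen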
Sequence of Cytochrome P450 3A4 (P08684 whole entry, the tested form may be a part): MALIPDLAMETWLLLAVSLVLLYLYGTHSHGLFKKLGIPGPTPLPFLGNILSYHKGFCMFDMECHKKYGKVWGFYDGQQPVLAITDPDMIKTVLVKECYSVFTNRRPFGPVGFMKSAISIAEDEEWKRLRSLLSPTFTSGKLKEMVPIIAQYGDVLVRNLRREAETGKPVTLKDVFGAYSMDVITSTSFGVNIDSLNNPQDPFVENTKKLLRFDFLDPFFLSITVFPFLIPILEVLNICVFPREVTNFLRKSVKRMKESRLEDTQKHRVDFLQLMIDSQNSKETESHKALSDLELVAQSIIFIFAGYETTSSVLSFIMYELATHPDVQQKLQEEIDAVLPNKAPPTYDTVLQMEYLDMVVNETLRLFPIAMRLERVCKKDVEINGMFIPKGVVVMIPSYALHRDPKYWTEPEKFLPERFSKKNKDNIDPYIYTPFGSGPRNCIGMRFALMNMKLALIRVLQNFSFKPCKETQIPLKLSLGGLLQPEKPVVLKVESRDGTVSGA

[8] = HIV-1 AD8 envelope cell-cell fusion blockers – cherry-pick, dose response (AID 652062); assay type: functional, cell-based;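 further: luciferase signal from cell-cell fusion driven by HIV-1 clade B AD8 Env; potency is for inhibitors of fusion seen as a drop in luminescence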
[9] = NIH-3T3 fibroblast cytotoxicity, dose response, cytotoxicity control, cell-based, fluorescence, Alamar Blue, secondary assay (AID 2327); assay type: functional;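 further: NIH-3T3 mouse fibroblasts cultured with fluconazole at 8 µg/mL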
[10] = viability of HCT116 lacking mutant beta-catenin – cell-based, human colon tumor, dose response (AID 1045); assay type: functional;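 further: HCT116 colon tumor cells with beta catenin knocked out; cells exposed to compound for 60 hours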
[11] = viability of PTEN-deleted HCT116 cells – cell-based, HCT116 PTEN knockout, dose response (AID 1047); assay type: functional;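 further: HCT116 colon tumor cells with PTEN knocked out; cells exposed to compound for 60 hours before readout; potency for loss of cell viability measured by luminescence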
Nonstructural protein 1 = Nonstructural protein 1 (Influenza A virus, UniProt Q194T2); assay type: functional, Influenza A virus (A/California/07/2009(H1N1))
Sequence of Nonstructural protein 1 (Q194T2 whole entry): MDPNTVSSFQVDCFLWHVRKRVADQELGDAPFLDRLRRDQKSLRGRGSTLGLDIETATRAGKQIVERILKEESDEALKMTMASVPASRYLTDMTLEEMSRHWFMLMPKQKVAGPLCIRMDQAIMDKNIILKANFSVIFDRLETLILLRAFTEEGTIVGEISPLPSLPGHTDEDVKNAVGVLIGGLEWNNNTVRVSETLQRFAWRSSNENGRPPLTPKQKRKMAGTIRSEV

[12] = biological target: T6, Polyadenylate-binding protein 1 (Homo sapiens, UniProt P11940); test: MLLE binding blockers, Cy5 peptide tracer – biochemical, fluorescence polarization, Cy5-PAM2 peptide, secondary, miRNA deadenylation inhibitor project, dose response (AID 602260); assay type: functional; settings: read-out: IC50_Mean
T6 sequence (P11940 whole entry, the tested form may be a part): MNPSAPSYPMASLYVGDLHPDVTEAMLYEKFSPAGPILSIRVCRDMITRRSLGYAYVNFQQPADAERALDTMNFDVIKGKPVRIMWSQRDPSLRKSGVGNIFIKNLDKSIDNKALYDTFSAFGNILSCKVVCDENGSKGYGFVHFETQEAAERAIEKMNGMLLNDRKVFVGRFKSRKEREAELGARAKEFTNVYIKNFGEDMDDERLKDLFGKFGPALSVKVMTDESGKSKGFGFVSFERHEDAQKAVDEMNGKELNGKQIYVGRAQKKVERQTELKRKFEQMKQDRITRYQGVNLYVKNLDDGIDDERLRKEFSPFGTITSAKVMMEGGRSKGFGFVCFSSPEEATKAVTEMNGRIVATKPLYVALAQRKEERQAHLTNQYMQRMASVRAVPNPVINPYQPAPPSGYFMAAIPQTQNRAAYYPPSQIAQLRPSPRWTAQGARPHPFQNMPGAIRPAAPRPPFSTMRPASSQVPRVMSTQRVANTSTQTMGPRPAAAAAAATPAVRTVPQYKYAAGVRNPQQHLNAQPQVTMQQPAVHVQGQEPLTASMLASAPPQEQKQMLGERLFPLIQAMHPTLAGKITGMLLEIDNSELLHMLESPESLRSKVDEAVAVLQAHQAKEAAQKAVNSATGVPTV

[13] = biological target: T6, Polyadenylate-binding protein 1; test: MLLE domain peptide-binding blockers, IC50 – biochemical, fluorescence polarization, FITC-PAM2 peptide, dose response (AID 602259); assay type: functional; settings: read-out: IC50_Mean

Q: What does the source list for Cc1ccc(NC2OC(CO)C(O)C2O)cc1[N+](=O)[O-] (stereo unspecified)?
A: EC50 [1]: > 260 µM (inactive); IC50 [2]: > 50 µM (not active)

Q: Which IC50 [3] does the source give for O=C(CCS(=O)(=O)c1ccc(Br)cc1)NC1CCCC1 here?
A: 9.44 µM (active)

Q: With CC[N+]1(C)CC2CCC(C)(C1)C2(C)C (stereo unspecified) as the compound, how does the IC50 [3] read?
A: 27.8 µM (active)

Q: With CCNc1ccc(S(=O)(=O)N(C)C)cc1NCC(=O)Nc1ccccc1F as the compound, how does the AC50 [4] read?
A: 1800 nM (active)

Q: With COC(=O)CCC(=O)OC1(C)C(=O)C=C2C=C(C3CC3)OC=C2C1=O (stereo unspecified) as the compound, how does the EC50 [5] read?
A: 17.7 µM (active)

Q: What about the EC50 [6] of the same compound?
A: 68.8 µM (inconclusive)

Q: With CCCCC(=O)OCC(=O)c1[nH]c(C)c(C(=O)OCC)c1C as the compound, how does the EC50 [1] read?
A: > 260 µM (inactive)

Q: For C=CC[n+]1c(-c2ccc(C)cc2)csc1NNC(=O)Nc1ccccc1, which EC50 [7] is on record?
A: 1.27 µM (active)

Q: What about the AC50 (Cytochrome P450 3A4) of the same compound?
A: 3.55 µM (inconclusive)

Q: And the AC50 [8]?
A: 9.27 µM (active)

Q: And the EC50 [9]?
A: > 150 µM (inconclusive)

Q: For CCOC(=O)C(C(=O)OCC)C(C(=O)OCC)N1CCOCC1 (stereo unspecified), which EC50 [10] is on record?
A: 5.16 µM (active)

Q: What about the EC50 [11] of the same compound?
A: 6.34 µM (active)

Q: Which EC50 [10] does the source give for COC(=O)C1=C(C)N(c2cc(Cl)cc(Cl)c2)C(=O)C1 here?
A: 42.9 µM (active)

Q: What about the EC50 [11] of the same compound?
A: 35.6 µM (active)

Q: For Cc1cc(S(=O)(=O)N2CCN(c3ccccc3O)CC2)c(C)s1, which AC50 [4] is on record?
A: 156 nM (active)

Q: Which AC50 [4] does the source give for COc1ccc(CSc2nc(O)cc(=O)n2CC(C)C)cc1F here?
A: 949 nM (active)

Q: With O=C(CN1C(=O)c2cccc3cccc(c23)C1=O)N1CCN(Cc2ccc3c(c2)OCO3)CC1 as the compound, how does the IC50 (Nonstructural protein 1) read?
A: > 100 µM (active)

Q: Which IC50 [3] does the source give for O=C(CSc1nnc(Nc2ccccc2F)s1)NC(=O)CN1CCCC1=O here?
A: 5.43 µM (active)

Q: With Cc1cccc(N=Nc2c(O)nc(O)c(C#N)c2C)c1 as the compound, how does the EC50 [1] read?
A: 258 µM (active)

Q: For C#CCOCCOCCOCCNc1nc(N2CCN(C(=O)[C@H]([C@@H](C)CC)n3cc([C@@H](N)CO)nn3)CC2)nc(N2CCN(C(=O)[C@H]([C@@H](C)CC)n3cc([C@@H](N)CC(C)C)nn3)CC2)n1, which EC50 [5] is on record?
A: 24.4 µM (active)

Q: And the EC50 [6]?
A: 18 µM (active)

Q: And the IC50 [12]?
A: > 66 µM (inactive)

Q: And the IC50 [13]?
A: 43.1 µM (inactive)

Q: Which AC50 [4] does the source give for Cc1ccc(-c2nc(-c3ccccn3)sc2CC(=O)O)cc1 here?
A: 226 nM (active)

Q: With COc1ccc(CCNCc2ccc(Br)cc2)cc1OC as the compound, how does the EC50 [1] read?
A: > 260 µM (inactive)

Q: Which IC50 (Nonstructural protein 1) does the source give for CCN(CC)c1ccc(Nc2nc(N3CCOCC3)c3ccccc3n2)cc1 here?
A: 11.5 µM (active)

Q: With O=C(COC(=O)c1ccccc1O)NCc1ccco1 as the compound, how does the IC50 [3] read?
A: 9.53 µM (active)

Q: With O=C(Nc1nnc(-c2cccnc2)o1)c1cccc([N+](=O)[O-])c1 as the compound, how does the AC50 [4] read?
A: 1610 nM (active)

Q: With O=c1[nH]c(CN2CCc3ccccc3C2)nc2ccccc12 as the compound, how does the EC50 [5] read?
A: > 300 µM (not active)

Q: What about the EC50 [6] of the same compound?
A: > 300 µM (not active)

Q: What about the IC50 [12] of the same compound?
A: > 66 µM (inactive)

Q: What about the IC50 [13] of the same compound?
A: > 66 µM (inactive)

Q: Which EC50 [10] does the source give for COc1ccccc1NC(=O)C1=C(C)N(c2ccccc2)C(S)=NC1c1cccc(C(F)(F)F)c1 (stereo unspecified) here?
A: 13.7 µM (active)

Q: And the EC50 [11]?
A: 14.3 µM (active)

Q: Which EC50 [1] does the source give for O=C(Nc1c(C(=O)c2ccccc2)oc2ccccc12)c1cc(-c2ccccc2O)n[nH]1 here?
A: > 260 µM (inactive)

Q: For COc1cccc(N2C(=O)NC(=O)/C(=C/Nc3c(C)n(C)n(-c4ccccc4)c3=O)C2=O)c1, which EC50 [5] is on record?
A: > 300 µM (not active)

Q: What about the EC50 [6] of the same compound?
A: > 300 µM (not active)

Q: Which AC50 [4] does the source give for CC(=O)Nc1ccc(N2C(=O)CSC2c2ccccc2[N+](=O)[O-])cc1 (stereo unspecified) here?
A: 517 nM (active)

Q: Which AC50 [4] does the source give for CN(C)c1ccc(CN(Cc2ccco2)C(=O)c2ccco2)cc1 here?
A: 822 nM (active)

Q: Which IC50 [3] does the source give for O=C(Nc1ccc2c(c1)C(=O)NC2=O)c1cccc(C(F)(F)F)c1 here?
A: 9.33 µM (active)

Q: Which EC50 [10] does the source give for CC(C)OC(=O)CC(=O)CSc1nc2c(cc1C#N)CCC2 here?
A: 8.4 µM (active)

Q: And the EC50 [11]?
A: 5.82 µM (active)

Q: With COc1ccc(Br)cc1CNc1ccc2[nH]c(O)nc2c1 as the compound, how does the AC50 [4] read?
A: 1080 nM (active)

Q: For O=C(N/N=C/c1ccncc1)c1ccc(NC(=O)c2cccc(Cl)c2)cc1, which IC50 [3] is on record?
A: 13.9 µM (active)

Q: With NC(=O)c1cccc(/N=C/c2cc(Cl)cc(Cl)c2O)c1 as the compound, how does the EC50 [5] read?
A: > 300 µM (not active)

Q: What about the EC50 [6] of the same compound?
A: > 300 µM (not active)

Q: Which IC50 (Nonstructural protein 1) does the source give for O=C(NCc1ccccn1)C(=O)N/N=C/c1ccccc1O here?
A: 14 µM (active)

Q: For COc1ccc(C2C(C#N)=C(/N=C/N3CCOCC3)OC3=C2C(=O)CC(C)(C)C3)cc1OC (stereo unspecified), which EC50 [5] is on record?
A: > 300 µM (not active)

Q: What about the EC50 [6] of the same compound?
A: > 300 µM (not active)

— ChEMBL document CHEMBL1201862, “PubChem BioAssay data set” (2004)
